Data published in the supplement of paper PMC10307832.

What was measured:
Assay in all cases: relative viability (nuclei count vs DMSO), 5 days (fraction); higher = more cells survive
17-AAG + Decitabine = compound: C=CCNC1=C2C[C@@H](C)C[C@H](OC)[C@H](O)[C@@H](C)/C=C(\C)[C@H](OC(N)=O)[C@@H](OC)/C=C\C=C(/C)C(=O)NC(=CC1=O)C2=O [17-AAG] + Nc1ncn([C@H]2C[C@H](O)[C@@H](CO)O2)c(=O)n1 [Decitabine] (partner 2 µM)
In short: (§1)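 Nuclei were stained with Hoechst during a one-step fixation (final 0.05% Triton X-100, 1% formaldehyde, 1 ug/ml Hoechst) carried out 5 days after dosing, then counted on 4× images. The cells, lung cancer lines in 1536-well plates, had been dosed by pin tool the day after seeding with one drug alone or a fixed anchor-drug dose plus five library-drug doses (not always all listed) in √10 steps. Relative viability is the nuclei count in treated wells divided by that in vehicle wells, and each value is the median of duplicate plates.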

17-AAG + AZD7762 = compound: C=CCNC1=C2C[C@@H](C)C[C@H](OC)[C@H](O)[C@@H](C)/C=C(\C)[C@H](OC(N)=O)[C@@H](OC)/C=C\C=C(/C)C(=O)NC(=CC1=O)C2=O [17-AAG] + NC(=O)Nc1cc(-c2cccc(F)c2)sc1C(=O)N[C@H]1CCCNC1 [AZD7762] (partner 0.2 µM)
In short: as §1

17-AAG + Lapatinib = compound: C=CCNC1=C2C[C@@H](C)C[C@H](OC)[C@H](O)[C@@H](C)/C=C(\C)[C@H](OC(N)=O)[C@@H](OC)/C=C\C=C(/C)C(=O)NC(=CC1=O)C2=O [17-AAG] + CS(=O)(=O)CCNCc1ccc(-c2ccc3ncnc(Nc4ccc(OCc5cccc(F)c5)c(Cl)c4)c3c2)o1 [Lapatinib] (partner 2 µM)
In short: as §1

17-AAG + Bortezomib = compound: C=CCNC1=C2C[C@@H](C)C[C@H](OC)[C@H](O)[C@@H](C)/C=C(\C)[C@H](OC(N)=O)[C@@H](OC)/C=C\C=C(/C)C(=O)NC(=CC1=O)C2=O [17-AAG] + CC(C)C[C@H](NC(=O)[C@H](Cc1ccccc1)NC(=O)c1cnccn1)B(O)O [Bortezomib] (partner 0.002 µM)
In short: as §1

| Cell Line | relative viability (17-AAG + Decitabine; first compound 0.00128 µM) | relative viability (17-AAG + Decitabine; first compound 0.004048 µM) | relative viability (17-AAG + Decitabine; first compound 0.0128 µM) | relative viability (17-AAG + Decitabine; first compound 0.04048 µM) | relative viability (17-AAG + Decitabine; first compound 0.128 µM) | relative viability (17-AAG + AZD7762; first compound 0.00128 µM) | relative viability (17-AAG + AZD7762; first compound 0.004048 µM) | relative viability (17-AAG + AZD7762; first compound 0.0128 µM) | relative viability (17-AAG + AZD7762; first compound 0.04048 µM) | relative viability (17-AAG + AZD7762; first compound 0.128 µM) | relative viability (17-AAG + Lapatinib; first compound 0.00128 µM) | relative viability (17-AAG + Lapatinib; first compound 0.004048 µM) | relative viability (17-AAG + Lapatinib; first compound 0.0128 µM) | relative viability (17-AAG + Lapatinib; first compound 0.04048 µM) | relative viability (17-AAG + Lapatinib; first compound 0.128 µM) | relative viability (17-AAG + Bortezomib; first compound 0.00128 µM) | relative viability (17-AAG + Bortezomib; first compound 0.004048 µM) | relative viability (17-AAG + Bortezomib; first compound 0.0128 µM) | relative viability (17-AAG + Bortezomib; first compound 0.04048 µM) | relative viability (17-AAG + Bortezomib; first compound 0.128 µM) |
| --- | --- | --- | --- | --- | --- | --- | --- | --- | --- | --- | --- | --- | --- | --- | --- | --- | --- | --- | --- | --- |
| NCI-H522 | 0.668 | 0.769 | 0.686 | 0.584 | 0.431 | 0.845 | 0.857 | 0.569 | 0.51 | 0.393 |  |  |  |  |  |  |  |  |  |  |
| NCI-H661 | 0.496 | 0.552 | 0.473 | 0.341 | 0.257 |  |  |  |  |  | 0.445 | 0.436 | 0.47 | 0.416 | 0.259 | 0.857 | 0.912 | 0.781 | 0.637 | 0.393 |
| NCI-H1299 |  |  |  |  |  |  |  |  |  |  | 0.964 | 0.904 | 0.924 | 0.779 | 0.416 | 1.06 | 0.977 | 1.01 | 0.948 | 0.665 |
| NCI-H1395 | 0.611 | 0.694 | 0.568 | 0.387 | 0.383 | 0.415 | 0.431 | 0.395 | 0.34 | 0.337 | 0.903 | 1.12 | 0.485 | 0.406 | 0.417 |  |  |  |  |  |
| NCI-H1563 |  |  |  |  |  |  |  |  |  |  | 0.878 | 0.729 | 0.567 | 0.606 | 0.618 | 0.855 | 0.702 | 0.597 | 0.573 | 0.469 |
| NCI-H1648 |  | 0.522 | 0.547 | 0.38 | 0.324 |  | 0.854 | 0.558 | 0.626 | 0.325 |  |  |  |  |  |  |  |  |  |  |
| NCI-H1650 | 0.384 | 0.33 | 0.185 | 0.165 | 0.134 |  |  |  |  |  | 0.624 | 0.303 | 0.133 | 0.171 | 0.175 | 0.217 | 0.219 | 0.181 | 0.224 | 0.197 |
| NCI-H1703 |  |  |  |  |  | 0.114 | 0.156 | 0.113 | 0.109 | 0.134 | 0.998 | 0.315 | 0.182 | 0.176 | 0.208 | 0.316 | 0.154 | 0.145 | 0.153 | 0.138 |
| NCI-H1793 | 0.429 | 0.382 | 0.225 | 0.21 | 0.159 | 0.66 | 0.306 | 0.173 | 0.109 | 0.0863 | 0.447 | 0.434 | 0.35 | 0.217 | 0.156 |  |  |  |  |  |
| NCI-H1944 | 0.418 | 0.445 | 0.441 | 0.357 | 0.163 | 0.497 | 0.488 | 0.237 | 0.155 | 0.138 | 0.795 | 0.889 | 0.646 | 0.482 | 0.169 |  |  |  |  |  |
| NCI-H2009 | 0.421 | 0.398 | 0.342 | 0.265 | 0.134 |  |  |  |  |  | 1.16 | 0.954 | 0.816 | 0.424 | 0.0895 | 0.974 | 0.995 | 0.917 | 0.815 | 0.142 |
| NCI-H2023 | 0.178 | 0.168 | 0.0829 | 0.0643 | 0.0587 |  |  |  |  |  | 0.872 | 0.675 | 0.0806 | 0.106 | 0.0805 | 0.886 | 0.878 | 0.138 | 0.0901 | 0.0776 |
| NCI-H2170 | 0.375 | 0.47 | 0.291 | 0.336 | 0.152 | 0.832 | 0.734 | 0.305 | 0.126 | 0.128 | 0.281 | 0.283 | 0.24 | 0.234 | 0.197 |  |  |  |  |  |
| NCI-H2228 |  |  |  |  |  |  |  |  |  |  | 1.08 | 0.109 | 0.128 | 0.161 | 0.168 | 0.88 | 0.304 | 0.137 | 0.167 | 0.135 |
| NCI-H2342 | 0.735 | 0.686 | 0.739 | 0.77 | 0.619 | 0.441 | 0.739 | 0.468 | 0.447 | 0.359 |  |  |  |  |  |  |  |  |  |  |
| SK-LU-1 | 0.582 | 0.599 | 0.402 | 0.24 | 0.223 |  |  |  |  |  | 0.812 | 0.545 | 0.454 | 0.216 | 0.14 | 0.976 | 0.903 | 0.311 | 0.238 | 0.197 |
| SK-MES-1 | 0.405 | 0.362 | 0.197 | 0.145 | 0.141 |  |  |  |  |  | 0.55 | 0.559 | 0.405 | 0.188 | 0.145 |  |  |  |  |  |
| SW 900 | 0.45 | 0.368 | 0.332 | 0.257 | 0.181 | 0.661 | 0.68 | 0.255 | 0.11 | 0.133 |  |  |  |  |  |  |  |  |  |  |
| SW 1573 | 0.336 | 0.284 | 0.159 | 0.113 | 0.0972 |  |  |  |  |  | 1.06 | 1.21 | 0.897 | 0.217 | 0.117 | 1.23 | 1.02 | 0.687 | 0.225 | 0.117 |
| UMC-11 | 0.484 | 0.658 | 0.536 | 0.523 | 0.255 |  |  |  |  |  | 0.887 | 0.992 | 0.566 | 0.204 | 0.127 | 0.667 | 0.616 | 0.629 | 0.227 | 0.12 |
